The experiment has as its system L1210 leukemia ip in BDF1 mice, survival T/C. The experiment is described as follows: NCI In Vivo Anticancer Drug Screen. Data for tumor model L1210 Leukemia (intraperitoneal) in B6D2F1 (BDF1) mice. Conditions: endpoint: mean survival time, higher = longer survival. The method in brief: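 Antitumor effect is assessed in tumor-bearing animals. Survival in the compound arm is compared with a vehicle-dosed control arm and expressed as their quotient.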

The mark [1] stands for this setting: dose: 100.0 mg/kg/injection, schedule: Q01DX009 (ip), vehicle: saline with Tween-80.
[2] abbreviates: dose: 100.0 mg/kg/injection, schedule: Q04DX003 (ip), vehicle: saline with Tween-80.
Where [3] appears, read: dose: 200.0 mg/kg/injection, schedule: Q01DX009 (ip), vehicle: saline with Tween-80.
[4] abbreviates: dose: 200.0 mg/kg/injection, schedule: Q04DX003 (ip), vehicle: saline with Tween-80.
The mark [5] stands for this setting: dose: 400.0 mg/kg/injection, schedule: Q01DX009 (ip), vehicle: saline with Tween-80.
Where [6] appears, read: dose: 400.0 mg/kg/injection, schedule: Q04DX003 (ip), vehicle: saline with Tween-80.
[7] abbreviates: dose: 100.0 mg/kg/injection, schedule: Q01DX001 (ip), vehicle: saline.
Where [8] appears, read: dose: 100.0 mg/kg/injection, schedule: Q04DX002 (ip), vehicle: saline with Tween-80.
The mark [9] stands for this setting: dose: 200.0 mg/kg/injection, schedule: Q04DX002 (ip), vehicle: saline with Tween-80.
[10] abbreviates: dose: 400.0 mg/kg/injection, schedule: Q04DX002 (ip), vehicle: saline with Tween-80.
Setting [11] is: dose: 75.0 mg/kg/injection, schedule: Q01DX001 (ip), vehicle: saline.
[12] abbreviates: dose: 150.0 mg/kg/injection, schedule: Q01DX001 (ip), vehicle: saline.
The mark [13] stands for this setting: dose: 100.0 mg/kg/injection, schedule: Q04DX003 (ip), vehicle: Klucel (hydroxypropylcellulose) (HPC).
The mark [14] stands for this setting: dose: 200.0 mg/kg/injection, schedule: Q04DX003 (ip), vehicle: Klucel (hydroxypropylcellulose) (HPC).
Setting [15] is: dose: 400.0 mg/kg/injection, schedule: Q04DX003 (ip), vehicle: Klucel (hydroxypropylcellulose) (HPC).
[16] abbreviates: dose: 100.0 mg/kg/injection, schedule: Q01DX009 (ip), vehicle: Klucel (hydroxypropylcellulose) (HPC).
[17] abbreviates: dose: 200.0 mg/kg/injection, schedule: Q01DX009 (ip), vehicle: Klucel (hydroxypropylcellulose) (HPC).
Setting [18] is: dose: 50.0 mg/kg/injection, schedule: Q01DX001 (ip), vehicle: saline.
The mark [19] stands for this setting: dose: 200.0 mg/kg/injection, schedule: Q01DX001 (ip), vehicle: saline.
Setting [20] is: dose: 400.0 mg/kg/injection, schedule: Q01DX001 (ip), vehicle: saline.

Molecules are shown by their SMILES. Values joined by “and” are separate entries in the source; they are usually repeats but may differ in a detail not shown here. Identical values can stand only once. Toxic doses and inconclusive results are not listed.

As for `O=C(NC1CCOC1=O)OCc1ccccc1` (centres undefined), the T/C was 94 % of control under setting [1]; 95 % of control under setting [2]; 95 % of control under setting [3]; 91 % of control under setting [4]; 94 % of control under setting [5]; 95 % of control under setting [6].

For the compound `CC1(C)N=C(N)N=C(N)N1c1cccc(OCCCC#N)c1`, the T/C under setting [7] is 101 % of control.

Consider `CC(C)(C)SC(=O)Cc1ccc([N+](=O)[O-])cc1`, for which the T/C reads like this: (dose: 50.0 mg/kg/injection, schedule: Q04DX002 (ip), vehicle: saline with Tween-80) 90 % of control; under setting [8], 100 % of control; under setting [9], 93 % of control; under setting [10], 87 % of control.

Turning to `COc1cc2c(cc1OC)-c1cc3ccc(OC)c(OC)c3c[n+]1CC2`, the T/C was 105 % of control (dose: 6.25 mg/kg/injection, schedule: Q04DX003 (ip), vehicle: saline); 101 % of control (dose: 12.5 mg/kg/injection, schedule: Q04DX003 (ip), vehicle: saline); 103 % of control (dose: 25.0 mg/kg/injection, schedule: Q04DX003 (ip), vehicle: saline).

In the case of `COC1N(c2ccccc2)CCN1c1ccccc1`, the T/C is 109 % of control (dose: 100.0 mg/kg/injection, schedule: Q04DX002 (ip), vehicle: gum acacia); 106 % of control (dose: 200.0 mg/kg/injection, schedule: Q04DX002 (ip), vehicle: gum acacia); 106 % of control (dose: 400.0 mg/kg/injection, schedule: Q04DX002 (ip), vehicle: gum acacia).

`CC(=O)c1ccc(P(=O)(O)O)cc1`: the T/C is 96 % of control under setting [11]; 102 % of control under setting [12]; 98 % of control (dose: 300.0 mg/kg/injection, schedule: Q01DX001 (ip), vehicle: saline).

`Clc1ccc(Sc2ncnc3nc[nH]c23)cc1`: the T/C by setting is: under setting [2], 102 % of control; under setting [4], 100 % of control; under setting [6], 105 % of control.

As for `Cc1ncnc2c1ncn2C1OC(CO)C(O)C1O` (centres undefined), the T/C is 103 % of control (dose: 0.24 mg/kg/injection, schedule: Q01DX015 (ip), vehicle: saline); 106 % of control (dose: 0.36 mg/kg/injection, schedule: Q01DX015 (ip), vehicle: saline); 116 % of control (dose: 0.54 mg/kg/injection, schedule: Q01DX015 (ip), vehicle: saline); 109 % of control and 110 % of control (dose: 1.21 mg/kg/injection, schedule: Q01DX015 (ip), vehicle: saline).

For `N/N=C1\CC(=O)NC(=O)N1`, the T/C was 90 % of control under setting [11] and 96 % of control under setting [12].

With `c1cc2c(c(C3=NCCO3)c1)CCCC2` (tested in a mixture with another compound), the T/C runs as follows: under setting [1], 96 % of control; under setting [3], 88 % of control; under setting [5], 91 % of control.

Regarding `c1ccc(-c2cccc(-c3ccccc3)c2)cc1`, the T/C under setting [13] is 93 % of control, the T/C under setting [14] was 108 % of control and the T/C under setting [15] was 90 % of control.

In the case of `O=C(O)c1cnc(Cl)nc1Nc1ccccc1I`, the T/C is, setting by setting: (dose: 6.25 mg/kg/injection, schedule: Q01DX009 (ip), vehicle: saline with Tween-80) 93 % of control; (dose: 12.5 mg/kg/injection, schedule: Q01DX001 (ip), vehicle: saline with Tween-80) 90 % of control; (dose: 12.5 mg/kg/injection, schedule: Q01DX009 (ip), vehicle: saline with Tween-80) 88 % of control; (dose: 25.0 mg/kg/injection, schedule: Q01DX001 (ip), vehicle: saline with Tween-80) 90 % of control.

For the compound `c1ccc(C2=NCN=C2c2ccccc2)cc1`, the T/C is, setting by setting: under setting [13], 99 % of control; under setting [14], 101 % of control; under setting [15], 92 % of control.

On to `CSCC(C)(C)NC(=O)NCCCl`, for which the T/C is 89 % of control (dose: 100.0 mg/kg/injection, schedule: Q04DX002 (ip), vehicle: Klucel (hydroxypropylcellulose) (HPC)) and 89 % of control (dose: 200.0 mg/kg/injection, schedule: Q04DX002 (ip), vehicle: Klucel (hydroxypropylcellulose) (HPC)).

As to `CCN=C(c1ccc(NC(=O)c2ccc(C(=O)Nc3ccc(C(=NCC)N(CC)C(=O)Nc4ccc(OCC)cc4)cc3)cc2)cc1)N(CC)C(=O)Nc1ccc(OCC)cc1`, the T/C runs as follows: (dose: 3.75 mg/kg/injection, schedule: Q01DX015 (ip), vehicle: methylcellulose (MC)) 122 % of control; (dose: 7.5 mg/kg/injection, schedule: Q01DX015 (ip), vehicle: methylcellulose (MC)) 150 % of control.

Turning to `COc1ccccc1NC(=O)Nc1ccccc1OC`, the T/C is 98 % of control under setting [16]; 97 % of control under setting [13]; 104 % of control under setting [17]; 97 % of control under setting [14]; 103 % of control (dose: 400.0 mg/kg/injection, schedule: Q01DX009 (ip), vehicle: Klucel (hydroxypropylcellulose) (HPC)); 94 % of control under setting [15].

As for `CC1(C(=O)O)CCC(C(=O)O)C1(C)C` (centres undefined), the T/C under setting [8] was 105 % of control, the T/C under setting [9] is 100 % of control and the T/C under setting [10] was 93 % of control.

For `COC(c1ccccc1)(c1ccccc1)N(C)C`, the T/C reads like this: under setting [18], 97 % of control; under setting [7], 105 % of control; under setting [19], 97 % of control; under setting [20], 94 % of control.

Regarding `CC(C)(C)CC(C)(C)NCc1ccccc1`, the T/C (dose: 25.0 mg/kg/injection, schedule: Q04DX003 (ip), vehicle: saline with Tween-80) was 103 % of control; the T/C (dose: 50.0 mg/kg/injection, schedule: Q04DX003 (ip), vehicle: saline with Tween-80) was 92 % of control; the T/C under setting [2] is 103 % of control.

For the compound `CN(C)c1ccc([N+](=O)[O-])c2c1CCC2`, the T/C by setting is: under setting [18], 111 % of control; under setting [7], 90 % of control; under setting [19], 106 % of control; under setting [20], 106 % of control.

For the compound `O=C(c1ccccn1)C12CC3CC(CC(C3)C1)C2`, the T/C by setting is: under setting [2], 97 % of control; under setting [4], 98 % of control; under setting [6], 101 % of control.

In the case of `O=C1CCNc2cc(Cl)ccc21`, the T/C (dose: 100.0 mg/kg/injection, schedule: Q01DX001 (ip), vehicle: Klucel (hydroxypropylcellulose) (HPC)) is 96 % of control; the T/C under setting [16] was 98 % of control; the T/C (dose: 200.0 mg/kg/injection, schedule: Q01DX001 (ip), vehicle: Klucel (hydroxypropylcellulose) (HPC)) is 95 % of control; the T/C under setting [17] was 95 % of control; the T/C (dose: 400.0 mg/kg/injection, schedule: Q01DX001 (ip), vehicle: Klucel (hydroxypropylcellulose) (HPC)) was 104 % of control.

For the compound `O=C1c2cccc3c([N+](=O)[O-])ccc(c23)C(=O)N1NCCO`, the T/C by setting is: (dose: 100.0 mg/kg/injection, schedule: Q04DX003 (ip), vehicle: carboxymethylcellulose (CMC)) 102 % of control; (dose: 200.0 mg/kg/injection, schedule: Q04DX003 (ip), vehicle: carboxymethylcellulose (CMC)) 100 % of control.

Regarding `Cc1cc(C(=O)O)c(C(C)C)cc1C(=O)O`, the T/C (dose: 100.0 mg/kg/injection, schedule: Q04DX003 (ip), vehicle: other) is 101 % of control; the T/C (dose: 200.0 mg/kg/injection, schedule: Q04DX003 (ip), vehicle: other) is 98 % of control; the T/C (dose: 400.0 mg/kg/injection, schedule: Q04DX003 (ip), vehicle: other) is 92 % of control.

The record behind these values is PubChem BioAssay AID248 (DTP/NCI, 2004).
